Data as given in PubChem BioAssay (NCI).
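Results reflect a 48-hour exposure of cells in 96-well plates to compound at five concentrations. At the GI50, growth is halved. Definition used: TGI = concentration required for complete inhibition of growth.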

How the values were obtained:
Experiment in all cases: NCI anticancer screen, dose series, 48 h
[1] = test system: M14 melanoma
[2] = test system: MDA-MB-435
[3] = test system: SF-268 CNS
[4] = test system: SF-539 CNS
[5] = test system: SNB-19 CNS
[6] = test system: TK-10 renal
[7] = test system: CAKI-1 renal
[8] = test system: K-562 leukemia
[9] = test system: MCF7 breast
[10] = test system: MDA-MB-231 breast
[11] = test system: NCI/ADR-RES ovarian
[12] = test system: UACC-257 melanoma

Structure (SMILES) | TGI [1] [µM] | TGI [2] [µM] | TGI [3] [µM] | GI50 [4] [nM] | TGI [4] [µM] | TGI [5] [µM] | GI50 [6] [µM] | TGI [6] [µM] | TGI [7] [µM] | TGI [8] [µM] | TGI [9] [µM] | TGI [10] [µM] | TGI [11] [µM] | TGI [12] [µM] | GI50 [8] [nM] | GI50 [9] [nM] | GI50 [10] [nM] | GI50 [11] [µM] | GI50 [3] [nM] | GI50 [12] [nM]
CCOC(=O)Nc1cc2c(c(N)n1)N=C(c1ccccc1)[C@H](C)N2 | 13.8 | < 0.0001 | > 100 | 26.9 | 0.0669 | 87.5 | 14.2 | 57.3 | – | – | – | – | – | – | – | – | – | – | – | –
Nc1ccc(N=Nc2ccc(-c3ccc(O)cc3)cc2)c2ccc(S(=O)(=O)O)cc12 | > 100 | > 100 | > 100 | – | > 100 | > 100 | – | > 100 | > 100 | > 100 | > 100 | > 100 | > 100 | > 100 | – | – | – | – | – | –
COc1cc(N/N=C/C#N)cc(OC)c1OC | > 10 | > 10 | > 10 | – | > 10 | > 10 | – | > 10 | > 10 | > 10 | > 10 | > 10 | > 10 | – | – | – | – | – | – | –
O=C(O)NCc1ccccc1 (tested in a mixture with another compound) | 99.3 | > 86.8 | > 100 | – | > 100 | > 100 | – | > 87.5 | > 100 | > 77 | > 100 | > 72.2 | > 90 | > 95.9 | – | – | – | – | – | –
CC(=O)OC/C=C/Cn1ncc(=O)[nH]c1=O | > 100 | > 100 | > 100 | – | > 100 | > 100 | – | – | > 100 | > 100 | > 100 | > 100 | > 100 | – | – | – | – | – | – | –
CCCCCCCCCCCCCCCC(=O)OCC1CCCN2CCCCC12 (centres undefined) | > 100 | > 100 | > 100 | – | > 100 | > 100 | – | > 100 | > 100 | > 100 | > 100 | > 100 | > 100 | > 100 | – | – | – | – | – | –
Oc1c2c(c3c4c1N=CC=4CCN=3)-c1c(Br)cc(Br)cc1CCN2 | – | – | 15.5 | – | 9.46 | > 35.6 | – | – | 51.1 | 7.57 | 4.16 | – | 12.5 | 2.86 | – | – | – | – | – | –
O=[N+]([O-])c1ccc2c(c1)Nc1c3ccccc3nc3cccc-2c13 | 16.9 | 36 | 40.5 | – | 44.3 | 47.6 | – | 17.3 | 18.8 | > 19.7 | – | > 25.4 | 17.1 | 47.9 | – | – | – | – | – | –
CC(C)OC(=O)C1=C(O)c2ccccc2S(=O)(=O)N1 | > 100 | – | > 100 | – | > 100 | > 100 | – | > 100 | > 100 | > 100 | – | – | – | > 100 | – | – | – | – | – | –
Cc1cc2c(cc1C)[n+](=O)c(C#N)c(Cl)n2[O-] | – | > 100 | > 100 | – | 28.2 | > 100 | – | 27.9 | 19.7 | > 100 | 27.5 | 63.8 | 42.3 | 27 | – | – | – | – | – | –
CC[C@H](Nc1nc(N)nc(C)c1C#N)c1nc2cccc(NCc3ccc(C(=O)NO)cc3)c2c(=O)n1-c1ccccc1 | – | – | 3.19 | 1560 | 3.63 | – | 2.02 | 6.88 | – | > 100 | 9.06 | 5.3 | > 100 | 6.2 | 2440 | 2010 | 1840 | 13.5 | 1330 | 1940
